Literature values, collected in patent US20110268774A1, “PREPARATION OF STEM CELLS WITH REPROGRAMMED CELL SIGNALLING, A METHOD OF PRODUCING THE PREPARATION AND A METHOD OF USE THEREOF” (priority 2008, published 2011).

Target: Protein produced by HER2/neu gene (Homo sapiens, UniProt P04626)
Conditions: breast cancer

Chain of Protein produced by HER2/neu gene (P04626 23-1255): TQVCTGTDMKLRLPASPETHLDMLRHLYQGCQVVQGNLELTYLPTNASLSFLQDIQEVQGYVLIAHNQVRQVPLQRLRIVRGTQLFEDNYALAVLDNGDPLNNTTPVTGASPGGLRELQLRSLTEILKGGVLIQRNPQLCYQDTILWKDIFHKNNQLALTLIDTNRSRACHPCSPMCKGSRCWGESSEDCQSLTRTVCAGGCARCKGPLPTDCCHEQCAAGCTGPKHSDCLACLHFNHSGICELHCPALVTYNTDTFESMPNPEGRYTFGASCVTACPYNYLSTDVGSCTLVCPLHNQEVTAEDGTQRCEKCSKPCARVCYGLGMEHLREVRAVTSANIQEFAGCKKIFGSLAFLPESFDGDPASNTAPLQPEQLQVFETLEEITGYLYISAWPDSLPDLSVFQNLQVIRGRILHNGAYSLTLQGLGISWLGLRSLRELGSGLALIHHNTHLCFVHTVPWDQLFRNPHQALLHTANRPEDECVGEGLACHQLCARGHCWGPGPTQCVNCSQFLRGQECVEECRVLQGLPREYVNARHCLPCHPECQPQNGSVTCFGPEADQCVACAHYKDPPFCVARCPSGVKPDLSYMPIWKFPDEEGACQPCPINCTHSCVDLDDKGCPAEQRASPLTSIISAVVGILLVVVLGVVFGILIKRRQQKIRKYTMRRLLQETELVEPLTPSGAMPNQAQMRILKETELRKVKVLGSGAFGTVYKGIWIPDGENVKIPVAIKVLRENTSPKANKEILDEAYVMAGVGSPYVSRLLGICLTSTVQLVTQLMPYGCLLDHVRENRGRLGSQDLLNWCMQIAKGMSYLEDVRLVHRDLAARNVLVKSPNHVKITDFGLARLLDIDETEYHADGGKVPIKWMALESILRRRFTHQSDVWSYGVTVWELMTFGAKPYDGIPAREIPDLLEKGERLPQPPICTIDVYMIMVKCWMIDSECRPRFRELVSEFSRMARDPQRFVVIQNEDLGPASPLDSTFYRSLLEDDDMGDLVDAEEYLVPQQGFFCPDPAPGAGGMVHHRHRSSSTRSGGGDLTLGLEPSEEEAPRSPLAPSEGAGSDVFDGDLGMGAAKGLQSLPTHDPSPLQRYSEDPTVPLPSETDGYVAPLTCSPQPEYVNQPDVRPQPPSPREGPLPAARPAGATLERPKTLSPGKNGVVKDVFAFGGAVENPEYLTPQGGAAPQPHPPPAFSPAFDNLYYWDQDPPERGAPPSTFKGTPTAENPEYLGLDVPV

- recovery: 63%
- CSC percentage in tumour (from 11%): 5%
SMILES: CS(=O)(=O)CCNCc1ccc(-c2ccc3ncnc(Nc4ccc(OCc5cccc(F)c5)c(Cl)c4)c3c2)o1 [Tykerb]
